According to ChEMBL document CHEMBL3880437, “Modulators of the prostacyclin (PGI2) receptor useful for the treatment of disorders related thereto” (2014):

Tests used:
Prostacyclin receptor = Prostacyclin receptor (Homo sapiens, UniProt P43119); assay: Agonist activity at human recombinant prostacyclin receptor expressed in CHO-K1 cells assessed as induction of cAMP accumulation incubated for 1 hr by HTRF assay; assay type: functional, cell-based
Platelet = assay: Inhibition of ADP-induced platelet aggregation in human platelet rich plasma pre-incubated for 1 min before ADP addition and measured 3 mins post ADP addition by aggregometry; assay type: functional

Chain of Prostacyclin receptor (P43119 whole entry): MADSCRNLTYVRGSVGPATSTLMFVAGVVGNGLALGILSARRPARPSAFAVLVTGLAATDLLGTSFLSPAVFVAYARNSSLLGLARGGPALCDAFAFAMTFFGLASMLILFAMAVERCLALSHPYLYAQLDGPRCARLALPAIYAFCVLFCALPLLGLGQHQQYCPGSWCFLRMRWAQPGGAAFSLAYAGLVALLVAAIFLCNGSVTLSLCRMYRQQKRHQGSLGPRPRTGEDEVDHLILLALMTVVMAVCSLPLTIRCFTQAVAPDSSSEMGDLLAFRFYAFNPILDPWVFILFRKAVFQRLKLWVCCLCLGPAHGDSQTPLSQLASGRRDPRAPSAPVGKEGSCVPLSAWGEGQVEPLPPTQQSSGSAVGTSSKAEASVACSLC

| EC50 (Prostacyclin receptor) [nM] | IC50 (Platelet) [nM] | SMILES |
| --- | --- | --- |
| 2.7 to 2650 | 10.5 to 1590 | O=C(O)COC[C@H]1CC[C@H](COC(=O)N(c2ccc(F)nc2)c2cccc(F)c2)CC1 |
| 2.7 to 2650 | 10.5 to 1590 | O=C(O)COC[C@H]1CC[C@H](CNC(=O)N(c2ccccc2)c2ccc(Cl)cc2)CC1 |
| 2.7 to 2650 | 10.5 to 1590 | O=C(O)COC[C@H]1CC[C@H](COC(=O)N(c2cccc(F)c2)c2cc(F)cc(F)c2)CC1 |
| 2.7 to 2650 | 10.5 to 1590 | Cc1cccc(N(C(=O)OC[C@H]2CC[C@@H](COCC(=O)O)CC2)c2ccccc2)c1 |
| 2.7 to 2650 | 10.5 to 1590 | O=C(O)COC[C@H]1CC[C@H](CNC(=O)N(c2ccccc2)c2ccc(F)c(F)c2)CC1 |
| 2.7 to 2650 | 10.5 to 1590 | Cc1cccc(N(C(=O)OC[C@H]2CC[C@H](COCC(=O)O)CC2)c2ccc(F)cc2)c1 |
| 2.7 to 2650 | 10.5 to 1590 | O=C(O)COC[C@H]1CC[C@H](COC(=O)N(c2ccccc2)c2ccnc(F)c2)CC1 |
| 2.7 to 2650 | 10.5 to 1590 | O=C(O)COC[C@H]1CC[C@H](COC(=O)N(c2cccc(F)c2)c2ccc(F)c(Cl)c2)CC1 |
| 2.7 to 2650 | 10.5 to 1590 | COc1cccc(N(C(=O)NC[C@H]2CC[C@H](COCC(=O)O)CC2)c2ccccc2)c1F |
| 2.7 to 2650 | 10.5 to 1590 | O=C(O)COC[C@H]1CC[C@H](COC(=O)N(c2ccccc2)c2cc(F)cc(Cl)c2)CC1 |
| 2.7 to 2650 | 10.5 to 1590 | Cc1cccc(N(C(=O)OC[C@H]2CC[C@H](COCC(=O)O)CC2)c2ccccc2)c1 |
| 2.7 to 2650 | 10.5 to 1590 | CN(C(=O)OC[C@H]1CC[C@H](COCC(=O)O)CC1)C(c1ccccc1)c1ccccc1 |
| 2.7 to 2650 | 10.5 to 1590 | O=C(O)COC[C@H]1CC[C@H](COC(=O)N(c2ccccc2)c2cccnc2)CC1 |
| 2.7 to 2650 | 10.5 to 1590 | O=C(O)COC[C@H]1CC[C@H](COC(=O)N(c2ccccc2)c2ccc(C(F)(F)F)cn2)CC1 |
| 2.7 to 2650 | 10.5 to 1590 | Cc1ccc(N(C(=O)OC[C@H]2CC[C@H](COCC(=O)O)CC2)c2ccc(F)cc2)s1 |
| 2.7 to 2650 | 10.5 to 1590 | O=C(O)COC[C@H]1CC[C@H](CNC(=O)N(c2ccccc2)c2cccc(C(F)(F)F)c2)CC1 |
| 2.7 to 2650 | 10.5 to 1590 | O=C(O)COC[C@H]1CC[C@H](COC(=O)N(c2ccc(O)cc2)c2ccc(Cl)cc2)CC1 |
| 2.7 to 2650 | 10.5 to 1590 | O=C(O)COC[C@H]1CC[C@H](COC(=O)N(c2ccc(F)cc2)c2ccc(OC(F)(F)F)cc2)CC1 |
| 2.7 to 2650 | 10.5 to 1590 | O=C(O)COC[C@H]1CC[C@H](COC(=O)N(c2ccccc2)c2ccc(Cl)cn2)CC1 |
| 2.7 to 2650 | 10.5 to 1590 | CCCN(C(=O)OC[C@H]1CC[C@H](COCC(=O)O)CC1)C(c1ccccc1)c1ccccc1 |
| 2.7 to 2650 | 10.5 to 1590 | COc1ccc(N(C(=O)NC[C@H]2CC[C@H](COCC(=O)O)CC2)c2ccccc2)c(C)c1 |
| 2.7 to 2650 | 10.5 to 1590 | O=C(O)COC[C@H]1CC[C@H](CNC(=O)N(c2ccccc2)c2cccc(F)c2)CC1 |
| 2.7 to 2650 | 10.5 to 1590 | O=C(O)COC[C@H]1CC[C@H](COC(=O)N(c2cccc(F)c2)c2cccc(Cl)c2)CC1 |
| – | 10.5 to 1590 | O=C(O)COC[C@H]1CC[C@H](COC(=O)N(c2ccccc2)c2cccc(Cl)c2)CC1 |
| 2.7 to 2650 | 10.5 to 1590 | Cc1ccc(N(C(=O)OC[C@H]2CC[C@H](COCC(=O)O)CC2)c2ccccc2)cc1F |
| 2.7 to 2650 | 10.5 to 1590 | O=C(O)COC[C@H]1CC[C@H](COC(=O)N(c2ccc(Cl)cc2)c2cccc(F)c2)CC1 |
| – | 10.5 to 1590 | COc1ccc(N(C(=O)OC[C@H]2CC[C@H](COCC(=O)O)CC2)c2cccc(F)c2)cc1 |
| 2.7 to 2650 | 10.5 to 1590 | O=C(O)COC[C@H]1CC[C@H](CNC(=O)N(c2ccccc2)c2ccc(Cl)c(F)c2)CC1 |

| EC50 (Prostacyclin receptor) [nM] | IC50 (Platelet) [nM] | SMILES |
| --- | --- | --- |
| – | 10.5 to 1590 | O=C(O)COC[C@H]1CC[C@@H](CNC(=O)N(c2ccccc2)c2ccccc2)CC1 |
| 2.7 to 2650 | 10.5 to 1590 | CN(C[C@H]1CC[C@H](COCC(=O)O)CC1)C(=O)N(C)C(c1ccccc1)c1ccccc1 |
| 2.7 to 2650 | 10.5 to 1590 | Cc1ccc(N(C(=O)OC[C@H]2CC[C@@H](COCC(=O)O)CC2)c2ccccc2)cc1 |
| 2.7 to 2650 | 10.5 to 1590 | Cc1ccc(N(C(=O)NC[C@H]2CC[C@H](COCC(=O)O)CC2)c2ccc(C)cc2)cc1 |
| 2.7 to 2650 | 10.5 to 1590 | Cc1cccc(N(C(=O)NC[C@H]2CC[C@H](COCC(=O)O)CC2)c2cccc(C)c2)c1 |
| 2.7 to 2650 | 10.5 to 1590 | O=C(O)COC[C@H]1CC[C@H](COC(=O)N(c2cccc(F)c2)c2cccc(OC(F)(F)F)c2)CC1 |
| 2.7 to 2650 | 10.5 to 1590 | COc1ccc(N(C(=O)OC[C@H]2CC[C@@H](COCC(=O)O)CC2)c2ccccc2)cc1 |
| 2.7 to 2650 | 10.5 to 1590 | Cc1ccc(N(C(=O)OC[C@H]2CC[C@H](COCC(=O)O)CC2)c2ccccc2)cc1 |
| 2.7 to 2650 | 10.5 to 1590 | COc1cncc(N(C(=O)OC[C@H]2CC[C@H](COCC(=O)O)CC2)c2ccccc2)c1 |
| 2.7 to 2650 | 10.5 to 1590 | COc1ccccc1N(C(=O)OC[C@H]1CC[C@@H](COCC(=O)O)CC1)c1ccccc1 |
| 2.7 to 2650 | 10.5 to 1590 | O=C(O)COC[C@H]1CC[C@H](CNC(=O)N(c2ccccc2)c2ccccc2F)CC1 |
| 2.7 to 2650 | 10.5 to 1590 | O=C(O)COC[C@H]1CC[C@H](COC(=O)N(c2ccccc2)c2ccc(F)nc2)CC1 |
| 2.7 to 2650 | 10.5 to 1590 | O=C(O)COC[C@H]1CC[C@H](CNC(=O)NC(c2ccccc2)c2ccccc2)CC1 |
| 2.7 to 2650 | 10.5 to 1590 | O=C(O)COC[C@H]1CC[C@H](COC(=O)N(c2ccccc2)c2ccc(F)c(F)c2)CC1 |
| 2.7 to 2650 | 10.5 to 1590 | Cc1ccc(N(C(=O)OC[C@H]2CC[C@H](COCC(=O)O)CC2)c2cccc(F)c2)cc1 |
| 2.7 to 2650 | 10.5 to 1590 | Cc1cnc(N(C(=O)OC[C@H]2CC[C@H](COCC(=O)O)CC2)c2ccccc2)s1 |
| 2.7 to 2650 | 10.5 to 1590 | COc1ccc(N(C(=O)NC[C@H]2CC[C@H](COCC(=O)O)CC2)c2ccccc2)cc1 |
| 2.7 to 2650 | 10.5 to 1590 | O=C(O)COC[C@H]1CC[C@H](CNC(=O)N(c2ccccc2)c2cc(F)cc(Cl)c2)CC1 |
| 2.7 to 2650 | 10.5 to 1590 | O=C(O)COC[C@H]1CC[C@H](COC(=O)N(c2ccc(F)cc2)c2ccc(Cl)cc2)CC1 |
| 2.7 to 2650 | 10.5 to 1590 | O=C(O)COC[C@H]1CC[C@@H](COC(=O)N(c2ccccc2)c2ccccc2)CC1 |
| – | 10.5 to 1590 | O=C(O)COC[C@H]1CC[C@@H](COC(=O)N(c2ccccc2)c2cccc(F)c2)CC1 |
| – | 10.5 to 1590 | Cc1ccc(N(C(=O)OC[C@H]2CC[C@H](COCC(=O)O)CC2)c2cccc(F)c2)s1 |
| – | 10.5 to 1590 | O=C(O)CNC(=O)COC[C@H]1CC[C@H](COC(=O)N(c2ccccc2)c2ccc(Cl)cc2)CC1 |
| – | 10.5 to 1590 | O=C(O)COC[C@H]1CC[C@@H](COC(=O)N(c2ccccc2)c2ccc(Cl)cc2)CC1 |
| – | 10.5 to 1590 | O=C(O)COC[C@H]1CC[C@H](COC(=O)N(c2ccccc2)c2ccc(F)cc2)CC1 |
| – | 10.5 to 1590 | O=C(O)COC[C@H]1CC[C@H](CNC(=O)N(c2ccccc2)c2cccc(Cl)c2)CC1 |
| – | 10.5 to 1590 | O=C(O)COC[C@H]1CC[C@@H](COC(=O)N(c2ccccc2)c2ccc(F)cc2)CC1 |
